Experimental data from patent US8088806B2 (Achillion Pharmaceuticals, Inc., priority 2005, dated 2012).

Each compound was assayed on HCV replicon (assay: Replicon based assay of HCV replication inhibition (NPT ELISA)). Conditions: Hepatitis C virus, Huh-7, 72 h, Table I; Huh-7 HCV replicon-containing cells, three days; read-out: Activity.
Type: cell-based, Hepatitis C virus
Description: Compounds claimed herein are tested for the ability to inhibit viral replication of the Hepatitis C replicon in cultured cells in which the HCV replicon construct has been incorporated. The HCV replicon system was described by Bartenschlager, et. al (Science, 285, pp. 110-113 (1999)). The replicon system is predictive of in vivo anti-HCV activity; compounds that are active in humans uniformly evidence activity in the replicon assay.
In this assay HCV replicon containing cells are treated with different concentrations of the test compound to ascertain the ability of the test compound to suppress replication of the HCV replicon. As a positive control, HCV replicon-containing cells are treated with different concentrations of interferon alpha, a known inhibitor of HCV replication. The replicon assay system includes Neomycin Phosphotransferase (NPT) as a component of the replicon itself in order to detect the transcription of replicon gene products in the host cell. Cells in which the HCV replicon is actively replicating have high levels of NPT; the level of NPT is proportional to HCV replication. […] The NPT level of each sample is measured using a captured ELISA.
A protocol for testing compounds for the ability to inhibit viral replication of the Hepatitis C replicon cultured cells in which the replicon construct has been incorporated, follows.
The HCV replicon contains, 5′-3′, the HCV-IRES, the neomycin phosphotransferase (neo) gene, the IRES of encephalomyocarditis virus, which directs translation of HCV sequences NS3 to NS5B, and the 3′-NTR. The sequence of the HCV replicon has been deposited in GenBank (Accession no. AJ242652).
The replicon is transfected into Huh-7 cells using standard methods such as electroporation.
The equipment and materials include, but are not limited to, Huh-7 HCV replicon-containing cells, maintenance media (DMEM (Dulbecco's modified Eagle media) supplemented with 10% FBS, L-glutamine, non-essential amino acids, penicillin (100 units/ml), streptomycin (100 micrograms/ml), and 500 micrograms/ml of Geneticin (G418), screening media (DMEM supplemented with 10% FBS, L-glutamine, non-essential amino acids, penicillin (100 units/ml) and streptomycin (100 micrograms/ml)), 96 well tissue culture plates (flat bottom), 96 well plates (U bottom for drug dilution), Interferon alpha for positive control, fixation reagent (such as methanol: acetone), primary antibody (rabbit anti-NPTII), secondary antibody: Eu-N1l, and enhancement solution.
The cells are then seeded onto 96-well plates at a density of 6000-7500 cells/100 microliters/well (6-7.5×10^5 cells/10 ml/plate). The plates are then incubated at 37° C. in a 5% CO2 incubator.
HCV replicon-containing cells are rinsed with once PBS once; 2 mls of trypsin are then added. Cells are incubated at 37° C. in a 5% CO2 incubator for 3-5 minutes. 10 mls of complete medium is added to stop the reaction. Cells are blown gently, put into a 15 ml tube, and spun at 1200 rpm for four minutes. The trypsin/medium solution is removed and 5 mls of medium (500 ml DMEM (high glucose)) from BRL catalog #12430-054; 50 mls 10% FBS, 5% Geneticin G418 (50 mg/ml, BRL catalog #10131-035), 5 ml MEM non-essential amino acids (100×BRL #11140-050) and 5 ml pen-strep (BRL # 15140-148) is added. The cells and media are mixed carefully
Cells are plated with screening medium (500 ml DMEM (BRL #21063-029), 50 ml FBS (BRL #10082-147) and 5 ml MEM non-essential amino acid (BRL #11140-050) at 6000-7500 cells/100 μl/well of 96 well plate (6-7.5×10^5 cells/10 ml/plate). Plates are placed into 37° C. 5% CO2 incubator overnight.
The following morning, drugs (test compounds or interferon alpha) are diluted in 96 well U bottom plates with media or DMSO/media, depending on the final concentration chosen for screening. Generally for 6 concentrations of each test compounds ranging from 10 micromolar to 0.03 micromolar are applied. […]

Structure (SMILES) | EC50
Clc1ccc(-c2cc(-c3csc(Nc4cccc(Oc5ccccc5)c4)n3)on2)cc1Cl [compound 189, 4-(3-(3,4-dichlorophenyl)isoxazol-5-yl)-N-(3-phenoxyphenyl)thiazol-2-amine] | > 10000 nM
c1cncc(-c2csc(Nc3ccc(C4CCCCC4)cc3)n2)c1 [compound 100, N-(4-cyclohexylphenyl)-4-(pyridin-3-yl)thiazol-2-amine] | < 1000 nM
c1cncc(-c2csc(Nc3ccc(CN4CCCCC4)cc3)n2)c1 [compound 69, N-(4-((piperidin-1-yl)methyl)phenyl)-4-(pyridin-3-yl)thiazol-2-amine] | > 10000 nM
Clc1ccc(-c2csc(Nc3cccc(Oc4ccccc4)c3)n2)cc1Cl [compound 32, 4-(3,4-dichlorophenyl)-N-(3-phenoxyphenyl)thiazol-2-amine] | < 1000 nM
CCCCCOc1ccc(Nc2nc(C(N)CC(C)C)cs2)cc1C(F)(F)F (stereo not drawn) [compound 161, 4-(1-amino-3-methylbutyl)-N-(3-(trifluoromethyl)-4-(pentyloxy)phenyl)thiazol-2-amine] | 1000 to 10000 nM
CCCCCOc1ccc(Nc2nc(C(=O)Nc3ccc(C#N)cc3)cs2)cc1C(F)(F)F [compound 15, 2-(3-(trifluoromethyl)-4-(pentyloxy)phenylamino)-N-(4-cyanophenyl)thiazole-4-carboxamide] | > 10000 nM
CCCCCOc1ccc(Nc2nc(-c3ccc(F)cc3F)cs2)cn1 [compound 65, N-(4-(2,4-difluorophenyl)thiazol-2-yl)-6-(pentyloxy)pyridin-3-amine] | > 10000 nM
CCCCc1ccc(Nc2nc(-c3cccnc3)cs2)cc1 [compound 96, N-(4-butylphenyl)-4-(pyridin-3-yl)thiazol-2-amine] | 1000 to 10000 nM
Fc1ccc(-c2csc(Nc3ccc(Cl)c(C(F)(F)F)c3)n2)c(F)c1 [compound 61, N-(4-chloro-3-(trifluoromethyl)phenyl)-4-(2,4-difluorophenyl)thiazol-2-amine] | < 1000 nM

Same assay, conditions: Hepatitis C virus, Huh-7, 72 h, Table III; Huh-7 HCV replicon-containing cells, three days; read-out: Activity

Structure (SMILES) | EC50
CCCC/C=C\CCOc1ccc(Nc2nc(-c3ccc(C)nc3)cs2)cc1C(F)(F)F [compound 532, N-(4-((Z)-oct-3-enyloxy)-3-(trifluoromethyl)phenyl)-4-(6-methylpyridin-3-yl)thiazol-2-amine] | < 1000 nM
CCCCCOc1ccc(Nc2nc(-c3cncc(C(=O)OCC)c3)cs2)cc1C(F)(F)F [compound 603, ethyl 5-(2-(3-(trifluoromethyl)-4-(pentyloxy)phenylamino)thiazol-4-yl)pyridine-3-carboxylate] | 1000 to 10000 nM
FC(F)(F)c1cc(Nc2nccs2)ccc1OCCCC1CCCC1 [compound 622, N-(4-(3-cyclopentylpropoxy)-3-(trifluoromethyl)phenyl)thiazol 2-amine] | < 1000 nM
CCCCCOc1ccc(Nc2nc(-c3ccc(F)nc3)cs2)cc1F [compound 527, N-(3-fluoro-4-(pentyloxy)phenyl)-4-(6-fluoropyridin-3-yl)thiazol-2-amine] | < 1000 nM
CCC(CC)Oc1ccc(Nc2nc(-c3cccnc3)cs2)cc1C(F)(F)F [compound 645, N-(3-(trifluoromethyl)-4-(pentan-3-yloxy)phenyl)-4-(pyridin-3-yl)thiazol-2-amine] | < 1000 nM
CCCCCCCc1ccc(Nc2nc(-c3ccc(-c4ccccn4)s3)cs2)cc1 [compound 564, N-(4-heptylphenyl)-4-(5-(pyridin-2-yl)thiophen-2-yl)thiazol-2-amine] | < 1000 nM

Same assay, conditions: Hepatitis C virus, read-out: Activity

Structure (SMILES) | EC50
CCCCCCCCOc1cc([N+](=O)[O-])c(Nc2nc(-c3cccnc3)c([N+](=O)[O-])s2)cc1C(F)(F)F [compound 788, N-(5-(trifluoromethyl)-2-nitro-4-(octyloxy)phenyl)-5-nitro-4-(pyridin-3-yl)thiazol-2-amine] | 1000 to 10000 nM

Same assay, conditions: Hepatitis C virus, replicon based assay of HCV replication inhibition; Table II; read-out: Activity

Structure (SMILES) | EC50
Cc1sc(Nc2cccnc2)nc1-c1ccc(F)cc1 [compound 349, N-(4-(4-fluorophenyl)-5-methylthiazol-2-yl)pyridin-3-amine] | > 10000 nM
CCCCCOc1ccc(Nc2nc(CN3CCC(C(=O)O)CC3)cs2)cc1C(F)(F)F [compound 274, 1-((2-(4-(pentyloxy)-3-(trifluoromethyl)phenyl-amino)thiazol-4-yl)methyl)piperidine-4-carboxylic acid] | < 1000 nM
CCCCCOc1ccc(Nc2nc(CN3CCC(CO)CC3)cs2)cc1C(F)(F)F [compound 273, (1-((2-(4-(pentyloxy)-3-(trifluoromethyl)phenyl-amino)thiazol-4-yl)methyl)piperidin-4-yl)methanol] | < 1000 nM
CCCCCOc1ccc(Nc2nc(-c3ccncc3)cs2)cc1C(F)(F)F [compound 364, N-(4-(pentyloxy)-3-(trifluoromethyl)phenyl)-4-(pyridin-4-yl)thiazol-2-amine] | < 1000 nM
CCCCCCCCOc1ccc(Nc2nc(-c3ccc(OC)cc3)cs2)cc1 [compound 310, 4-(4-methoxyphenyl)-N-(4-(octyloxy)phenyl)thiazol-2-amine] | < 1000 nM
CCCCCOc1ccc(Nc2nc(-c3ccc(C#N)nc3)cs2)cc1C(F)(F)F [compound 510, 5-(2-(3-(trifluoromethyl)-4-(pentyloxy)phenylamino)thia-zol-4-yl)pyridin-2-carbonitrile] | < 1000 nM
CN1CCC[C@H](c2csc(Nc3ccc(Oc4ccccc4)cc3)n2)C1 [compound 236, (S)-4-(1-methylpiperidin-3-yl)-N-(4-phenoxyphenyl)thiazol-2-amine] | 1000 to 10000 nM

Same assay, conditions: Hepatitis C virus, replicon based assay of HCV replication inhibition; Table IV; read-out: Activity

Structure (SMILES) | EC50
Cc1cccc(CCCCOc2ccc(Nc3nc(-c4cccnc4)cs3)cc2C(F)(F)F)c1 [compound 935, N-(4-(4-m-tolylbutoxy)-3-(trifluoromethyl)phenyl)-4-(pyridin-3-yl)thiazol-2-amine] | < 1000 nM
Fc1ccc(Cn2ccc3cc(Nc4nc(-c5ccc(F)cc5)cs4)ccc32)cc1 [compound 871, 1-(4-fluorobenzyl)-N-(4-(4-fluorophenyl)thiazol-2-yl)-1H-indol-5-amine] | > 10000 nM
FC(F)(F)c1cc(Nc2nc(-c3cccc4cccnc34)cs2)ccc1OCC1CCCCC1 [compound 774, N-(4-(cyclohexylmethoxy)-3-(trifluoromethyl)phenyl)-4-(quinolin-8-yl)thiazol-2-amine] | < 1000 nM
CCCCCCCS(=O)(=O)CCc1ccc(Nc2nc(-c3cccnc3)cs2)cc1 [compound 953, N-(4-(2-(heptylsulfonyl)ethyl)phenyl)-4-(pyridin-3-yl)thiazol-2-amine] | 1000 to 10000 nM
O=C(O)Cc1ccc(-c2csc(Nc3ccc(OCCCc4ccco4)c(C(F)(F)F)c3)n2)s1 [compound 943, 2-(5-(2-(4-(3-(furan-2-yl)propoxy)-3-(trifluoromethyl)phenylamino)thiazol-4-yl)thiophen-2-yl)acetic acid] | < 1000 nM
FC(F)(F)c1cc(Nc2nc(-c3cnccn3)cs2)ccc1OCCCCc1ccccc1 [compound 940, N-(4-(4-phenylbutoxy)-3-(trifluoromethyl)phenyl)-4-(pyrazin-2-yl)thiazol-2-amine] | < 1000 nM
CCCCCCCCOc1ccc(Nc2nc(-c3ccc(CN)nc3)cs2)cc1C(F)(F)F [compound 844, 4-(6-(aminomethyl)pyridin-3-yl)-N-(3-(trifluoromethyl)-4-(octyloxy)phenyl)thiazol-2-amine] | < 1000 nM
